For `CC1=CC(=O)C(C(C)C)=CC1=O`, the solubility (mole fraction) (in DMSO, 298.2 K) was 0.0278, the solubility (mole fraction) (in DMSO, 303.2 K) was 0.0309 and the solubility (mole fraction) (in DMSO, 308.2 K) was 0.0358. For the same molecule, the solubility (mole fraction) (in DMSO, 313.2 K) was 0.0402, the solubility (mole fraction) (in DMSO, 318.2 K) was 0.045 and the solubility (mole fraction) (in PEG-400, 298.2 K) was 0.0352. The solubility (mole fraction) (in PEG-400, 303.2 K) was 0.042, the solubility (mole fraction) (in PEG-400, 308.2 K) was 0.0508 and the solubility (mole fraction) (in PEG-400, 313.2 K) was 0.0617. For the same molecule, the solubility (mole fraction) (in PEG-400, 318.2 K) was 0.0744, the solubility (mole fraction) (in ethanol, 298.2 K) was 0.0179 and the solubility (mole fraction) (in ethanol, 303.2 K) was 0.0206. The solubility (mole fraction) (in ethanol, 308.2 K) was 0.0238, the solubility (mole fraction) (in ethanol, 313.2 K) was 0.0278 and the solubility (mole fraction) (in ethanol, 318.2 K) was 0.0326. It also gave a solubility (mole fraction) (in ethyl acetate, 298.2 K) of 0.0312, a solubility (mole fraction) (in ethyl acetate, 303.2 K) of 0.0347 and a solubility (mole fraction) (in ethyl acetate, 308.2 K) of 0.0387. For the same molecule, the solubility (mole fraction) (in ethyl acetate, 313.2 K) was 0.0431, the solubility (mole fraction) (in ethyl acetate, 318.2 K) was 0.0485 and the solubility (mole fraction) (in isopropanol, 298.2 K) was 0.0451. It also gave a solubility (mole fraction) (in isopropanol, 303.2 K) of 0.0514, a solubility (mole fraction) (in isopropanol, 308.2 K) of 0.0579 and a solubility (mole fraction) (in isopropanol, 313.2 K) of 0.0663. For the same molecule, the solubility (mole fraction) (in isopropanol, 318.2 K) was 0.0758, the solubility (mole fraction) (in methanol, 298.2 K) was 0.01 and the solubility (mole fraction) (in methanol, 303.2 K) was 0.0116. For the same molecule, the solubility (mole fraction) (in methanol, 308.2 K) was 0.0137, the solubility (mole fraction) (in methanol, 313.2 K) was 0.0157 and the solubility (mole fraction) (in methanol, 318.2 K) was 0.0182. The solubility (mole fraction) (in n-butanol, 298.2 K) was 0.0594, the solubility (mole fraction) (in n-butanol, 303.2 K) was 0.0658 and the solubility (mole fraction) (in n-butanol, 308.2 K) was 0.0744. For the same molecule, the solubility (mole fraction) (in n-butanol, 313.2 K) was 0.082, the solubility (mole fraction) (in n-butanol, 318.2 K) was 0.0933 and the solubility (mole fraction) (in propylene glycol, 298.2 K) was 0.00553. For the same molecule, the solubility (mole fraction) (in propylene glycol, 303.2 K) was 0.0069, the solubility (mole fraction) (in propylene glycol, 308.2 K) was 0.00891 and the solubility (mole fraction) (in propylene glycol, 313.2 K) was 0.0116. For the same molecule, the solubility (mole fraction) (in propylene glycol, 318.2 K) was 0.0146, the solubility (mole fraction) (in sec-butanol, 298.2 K) was 0.0614 and the solubility (mole fraction) (in sec-butanol, 303.2 K) was 0.07. For the same molecule, the solubility (mole fraction) (in sec-butanol, 308.2 K) was 0.0774, the solubility (mole fraction) (in sec-butanol, 313.2 K) was 0.0865 and the solubility (mole fraction) (in sec-butanol, 318.2 K) was 0.0973. It also gave a solubility (mole fraction) (in transcutol, 298.2 K) of 0.0664, a solubility (mole fraction) (in transcutol, 303.2 K) of 0.0755 and a solubility (mole fraction) (in transcutol, 308.2 K) of 0.0838. It also gave a solubility (mole fraction) (in transcutol, 313.2 K) of 0.0927, a solubility (mole fraction) (in transcutol, 318.2 K) of 0.103 and a solubility (mole fraction) (in water, 298.2 K) of 8.27e-05. It also gave a solubility (mole fraction) (in water, 303.2 K) of 9.39e-05, a solubility (mole fraction) (in water, 308.2 K) of 0.000108 and a solubility (mole fraction) (in water, 313.2 K) of 0.000131. It also gave a solubility (mole fraction) (in water, 318.2 K) of 0.000152.

From BigSolDB 2.1
